Converted amounts (≈) assume the structure as drawn. Like-named read-outs stand apart in the source and are kept apart here.
How the values were obtained:
Format in all cases: cell-based
[1] = system: Shigella sonnei ATCC11060; assay: minimal inhibiting concentration (MIC), Gram-negative bacteria
[2] = system: Klebsiella aerogenes 1522E; assay: as above
[3] = system: Diplococcus pneumoniae ATCC6301; assay: minimal inhibiting concentration (MIC), Gram-positive bacteria; conditions: Streptococcus pneumoniae
[4] = system: Enterobacter cloacae 1321E; assay: minimal inhibiting concentration (MIC), Gram-negative bacteria
[5] = system: Staphylococcus aureus Smith; assay: minimal inhibiting concentration (MIC), Gram-positive bacteria
Diplococcus aureus 39/2 = assay: as above
[6] = system: Proteus mirabilis ATCC9921; assay: minimal inhibiting concentration (MIC), Gram-negative bacteria
[7] = system: Enterobacter aerogenes ATCC8308; assay: as above; conditions: Klebsiella aerogenes
Salmonella typhi Watson = assay: as above; conditions: Salmonella enterica
[8] = system: Klebsiella pneumoniae ATCC 10031; assay: as above; conditions: ATCC10031
[9] = system: Streptococcus β-haemolyticus C203; assay: minimal inhibiting concentration (MIC), Gram-positive bacteria
Escherichia coli 1507 = assay: minimal inhibiting concentration (MIC), Gram-negative bacteria
Escherichia coli G = assay: as above
staphylococci = assay: activity against staphylococci compared with Cefazolin
From the text: (§1) The pharmaceutical or veterinary compositions containing the compounds of the invention may be prepared in a conventional way by employing the conventional carriers and/or diluents used for the other cephalosporins. Conventional carriers or diluents are, for example, water, gelatine, lactose, starches, magnesium stearate, talc, vegetable oils, cellulose and the like.

Gram-negative bacteria = assay: activity against Gram-negative bacteria
From the text: The compounds of the invention may be administered, either to humans or to animals, in a variety of dosage forms, e.g., orally in the form of tablets, capsules, drops or syrups; rectally in the form of suppositories; parenterally, e.g. intravenously or intramuscolarly (as solutions or suspensions), with intravenous administration being preferred in emergency situation; by inhalation in the form of aerosols or solutions for nebulizers; intravaginally in the form, e.g. of bougies; or topically in the form of lotions, creams and ointments. The pharmaceutical or veterinary compositions containing the compounds of the invention may be prepared in a conventional way by employing the conventional carriers and/or diluents used for the other cephalosporins. Conventional carriers or diluents are, for example, water, gelatine, lactose, starches, magnesium stearate, talc, vegetable oils, cellulose and the like. Daily doses in the range of about 1 to about 100 mg per kg of body weight may be used, in various animal species, the exact dose depending on the age, weight and condition of the subject to be treated and on the frequency and route of administration. […]

[10] = system: 60 strains of Gram-negative microorganisms comprising Klebsiella, Escherichia coli, Proteus mirabilis and Proteus vulgaris; assay: activity on a series of 60 strains of Gram-negative microorganisms in comparison with Cefazolin
From the text: as §1

[11] = system: streptococci (including diplococci); assay: activity against streptococci (including diplococci) compared with Cefazolin
From the text: as §1

Haemophylus influenzae = assay: activity against Haemophylus influenzae in comparison with Cefazolin; conditions: 7 strains tested
From the text: as §1

[12] = Escherichia coli G, read-out: MIC

Structure (SMILES)	MIC [1] [µg/mL]	MIC [2] [µg/mL]	MIC [3] [µg/mL]	MIC [4] [µg/mL]	MIC [5] [µg/mL]	MIC (Diplococcus aureus 39/2) [µg/mL]	MIC [6] [µg/mL]	MIC [7] [µg/mL]	MIC (Salmonella typhi Watson) [µg/mL]	MIC [8] [µg/mL]	MIC [9] [µg/mL]	MIC (Escherichia coli 1507) [µg/mL]	MIC (Escherichia coli G; Escherichia coli) [µg/mL]	MIC (Escherichia coli G; [12]) [µg/mL]	times more active than Cefazolin (staphylococci)	times more active than Cefazolin (Gram-negative bacteria)	activity in comparison with Cefazolin [10]	times more active than Cefazolin [11]	times more active than Cefazolin (Haemophylus influenzae)
Cn1nnnc1SCC1=C(C(=O)O)N2C(=O)C(NC(=O)[C@H](O)c3ccccc3)[C@H]2SC1 (stereo partly drawn) [Cefamandole, 7-D-mandelamido-3-{[(1-methyl-1H-tetrazol-5-yl)-thio]-methyl}-3-cephem-4-carboxylic acid, reference compound]	2.35 (≈ 5.08 µM)	0.4 (≈ 0.865 µM)	0.019 (≈ 0.0411 µM)	1.6 (≈ 3.46 µM)	0.15 (≈ 0.324 µM)	1.2 (≈ 2.59 µM)	1.6 (≈ 3.46 µM)	1.6 (≈ 3.46 µM)	0.6 (≈ 1.3 µM)	0.15 (≈ 0.324 µM)	0.019 (≈ 0.0411 µM)	0.8 (≈ 1.73 µM)	2.35 (≈ 5.08 µM)						
Cc1nnc(SCC2=C(C(=O)O)N3C(=O)[C@@H](NC(=O)Cn4cnnn4)[C@H]3SC2)s1 [Cefazolin, 7-(1-(1H)-tetrazolylacetamido)-3-[2-(5-methyl-1,3,4-thiadiazolyl)-thiomethyl]-3-cephem-4-carboxylic acid, reference compound]	1.6 (≈ 3.52 µM)	1.1 (≈ 2.42 µM)	0.05 (≈ 0.11 µM)	3.1 (≈ 6.82 µM)	0.05 (≈ 0.11 µM)	0.6 (≈ 1.32 µM)	6.2 (≈ 13.6 µM)	1.2 (≈ 2.64 µM)	1.6 (≈ 3.52 µM)	0.8 (≈ 1.76 µM)	0.05 (≈ 0.11 µM)	1.6 (≈ 3.52 µM)		1.6 (≈ 3.52 µM)					
Cc1nnc(SCC2=C(C(=O)O)N3C(=O)C(NC(=O)CSCC#N)C3SC2)s1 (stereo not shown) [K 9227, 7-[(cyanomethyl-thio)-acetamido]-3-[2-(5-methyl-1,3,4-thiadiazolyl)-thiomethyl]-3-cephem-4-carboxylic acid, reference compound]	1.6 (≈ 3.5 µM)	1.6 (≈ 3.5 µM)	0.4 (≈ 0.874 µM)	3.1 (≈ 6.77 µM)	0.05 (≈ 0.109 µM)	0.2 (≈ 0.437 µM)	12.5 (≈ 27.3 µM)	1.2 (≈ 2.62 µM)	0.8 (≈ 1.75 µM)	0.4 (≈ 0.874 µM)	0.025 (≈ 0.0546 µM)	1.6 (≈ 3.5 µM)		3.1 (≈ 6.77 µM)					
Cn1nnnc1SCC1=C(C(=O)O)N2C(=O)C(NC(=O)CSCC#N)C2SC1 (stereo not shown) [K 10299, 7-[(cyanomethyl-thio)-acetamido]-3-[5-(1-methyl-1,2,3,4-tetrazolyl)-thiomethyl]-3-cephem-4-carboxylic acid, reference compound]	1.6 (≈ 3.62 µM)	0.8 (≈ 1.81 µM)	0.2 (≈ 0.453 µM)	1.6 (≈ 3.62 µM)	0.075 (≈ 0.17 µM)	0.4 (≈ 0.906 µM)	6.2 (≈ 14 µM)	0.6 (≈ 1.36 µM)	0.2 (≈ 0.453 µM)	0.2 (≈ 0.453 µM)	0.037 (≈ 0.0838 µM)	0.8 (≈ 1.81 µM)		0.8 (≈ 1.81 µM)					
Cn1nnnc1SCC1=C(C(=O)O)N2C(=O)C(NC(=O)CS/C=C/C(N)=O)C2SC1 (stereo not drawn) [K 11457, 7-[β-carboxamido-ethylene(trans)-thio-acetamido]-3-[(1-methyl-1,2,3,4-tetrazol-5-yl)-thiomethyl]-3-cephem-4-carboxylic acid]	1.6 (≈ 3.39 µM)	0.2 (≈ 0.424 µM)	0.025 (≈ 0.053 µM)	1.6 (≈ 3.39 µM)	0.1 (≈ 0.212 µM)	0.4 (≈ 0.848 µM)	3.1 (≈ 6.57 µM)	0.4 (≈ 0.848 µM)	0.2 (≈ 0.424 µM)	0.15 (≈ 0.318 µM)	0.025 (≈ 0.053 µM)	0.4 (≈ 0.848 µM)		0.4 (≈ 0.848 µM)					
Cn1nnnc1SCC1=C(C(=O)O)N2C(=O)C(NC(=O)CS/C=C\C(N)=O)C2SC1 (stereo not drawn) [K 13031, 7-[β-carboxamido-ethylene(cis)-thio-acetamido]-3-[(1-methyl-1,2,3,4-tetrazol-5-yl)-thiomethyl]-3-cephem-4-carboxylic acid]	0.3 (≈ 0.636 µM)	0.2 (≈ 0.424 µM)	0.012 (≈ 0.0254 µM)	0.8 (≈ 1.7 µM)	0.1 (≈ 0.212 µM)	0.2 (≈ 0.424 µM)	0.8 (≈ 1.7 µM)	0.3 (≈ 0.636 µM)	0.2 (≈ 0.424 µM)	0.2 (≈ 0.424 µM)	< 0.012	0.4 (≈ 0.848 µM)		0.8 (≈ 1.7 µM)					
Cn1nnnc1SCC1=C(C(=O)O)N2C(=O)C(NC(=O)CS/C=C\C#N)C2SC1 (stereo not drawn) [K 13101, 7-[β-cyano-ethylene(cis)-thio-acetamido]-3-[(1-methyl-1,2,3,4-tetrazol-5-yl)-thiomethyl]-3-cephem-4-carboxylic acid]	0.8 (≈ 1.76 µM)	0.1 (≈ 0.22 µM)	0.012 (≈ 0.0265 µM)	0.56 (≈ 1.23 µM)	0.025 (≈ 0.0551 µM)	0.14 (≈ 0.309 µM)	0.4 (≈ 0.882 µM)	0.2 (≈ 0.441 µM)	0.07 (≈ 0.154 µM)	0.1 (≈ 0.22 µM)	0.012 (≈ 0.0265 µM)	0.1 (≈ 0.22 µM)		0.14 (≈ 0.309 µM)	about 2 times	about 9.6 times	always found to be more active than Cefazolin	about 4.2 times	about 6 times
N#C/C=C\SCC(=O)NC1C(=O)N2C(C(=O)O)=C(CSc3nncs3)CSC12 (stereo not drawn) [K 13107, 7-[β-cyano-ethylene(cis)-thio-acetamido]-3-[(1,3,4-thiadiazol-2-yl)-thiomethyl]-3-cephem-4-carboxylic acid]	1.6 (≈ 3.51 µM)	0.28 (≈ 0.615 µM)	< 0.006	1.6 (≈ 3.51 µM)	0.025 (≈ 0.0549 µM)	0.14 (≈ 0.307 µM)	0.4 (≈ 0.878 µM)	0.4 (≈ 0.878 µM)	0.2 (≈ 0.439 µM)	0.2 (≈ 0.439 µM)	< 0.006	0.57 (≈ 1.25 µM)		0.57 (≈ 1.25 µM)					
